Measured values from ChEMBL document CHEMBL1147837, “Methyl 2-(2-(4-formylphenoxy)acetamido)-2-substituted acetate derivatives: a new class of acetylcholinesterase inhibitors” (Bioorg Med Chem Lett, 2007).

Experiments:
[1] = target: Acetylcholinesterase (Torpedo californica, UniProt P04058); assay: Inhibition of AChE
[2] = Selectivity for Torpedo californica AChE over horse BuChE
[3] = target: Butyrylcholinesterase (Equus caballus, UniProt Q9N1N9); assay: Inhibition of BuChE in horse serum
Sequence of Butyrylcholinesterase (Q9N1N9 whole entry): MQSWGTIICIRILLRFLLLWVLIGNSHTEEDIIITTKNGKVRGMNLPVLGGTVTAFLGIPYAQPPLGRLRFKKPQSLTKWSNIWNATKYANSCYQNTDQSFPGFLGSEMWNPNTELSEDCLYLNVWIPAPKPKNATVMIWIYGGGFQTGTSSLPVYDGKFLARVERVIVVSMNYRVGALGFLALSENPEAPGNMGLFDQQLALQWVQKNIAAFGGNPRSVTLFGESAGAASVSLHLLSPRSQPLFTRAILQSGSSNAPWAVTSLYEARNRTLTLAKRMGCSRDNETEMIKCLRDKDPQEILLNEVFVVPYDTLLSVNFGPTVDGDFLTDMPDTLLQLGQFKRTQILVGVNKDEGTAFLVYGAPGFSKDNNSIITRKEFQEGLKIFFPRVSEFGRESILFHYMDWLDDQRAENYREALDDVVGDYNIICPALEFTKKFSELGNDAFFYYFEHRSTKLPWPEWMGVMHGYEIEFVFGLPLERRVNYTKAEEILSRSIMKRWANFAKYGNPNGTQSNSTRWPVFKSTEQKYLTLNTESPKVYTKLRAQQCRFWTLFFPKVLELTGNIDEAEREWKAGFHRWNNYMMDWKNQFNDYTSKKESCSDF

Sequence of Acetylcholinesterase (P04058 whole entry): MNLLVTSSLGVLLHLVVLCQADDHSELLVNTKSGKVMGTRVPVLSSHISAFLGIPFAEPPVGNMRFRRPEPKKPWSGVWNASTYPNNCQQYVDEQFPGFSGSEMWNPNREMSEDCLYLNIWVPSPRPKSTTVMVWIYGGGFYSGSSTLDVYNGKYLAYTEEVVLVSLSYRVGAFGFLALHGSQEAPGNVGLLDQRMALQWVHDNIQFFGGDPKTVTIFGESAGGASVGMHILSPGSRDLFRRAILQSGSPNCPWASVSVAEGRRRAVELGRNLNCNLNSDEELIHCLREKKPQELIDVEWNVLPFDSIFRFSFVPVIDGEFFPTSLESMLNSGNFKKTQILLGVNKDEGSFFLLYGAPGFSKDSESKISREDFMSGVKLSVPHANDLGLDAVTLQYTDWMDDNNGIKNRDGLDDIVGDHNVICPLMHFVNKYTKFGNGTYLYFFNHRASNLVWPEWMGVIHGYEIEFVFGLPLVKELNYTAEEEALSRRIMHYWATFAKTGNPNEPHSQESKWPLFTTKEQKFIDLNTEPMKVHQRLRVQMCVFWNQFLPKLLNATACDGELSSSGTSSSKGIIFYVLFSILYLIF

| Structure (SMILES) | IC50 [1] [µM] | Ratio IC50 [2] | IC50 [3] [µM] |
| --- | --- | --- | --- |
| COC(=O)C(C)NC(=O)COc1ccc(C=O)cc1 (stereo not drawn) | 0.19 | – | – |
| COC(=O)C(Cc1c[nH]c2ccccc12)NC(=O)COc1ccc(C=O)cc1 (stereo not drawn) | 0.28 | 121 | 33.9 |
| O=Cc1ccc(O)cc1 [4-HYDROXYBENZALDEHYDE] | > 1000 | – | – |
| COC(=O)CCC(NC(=O)COc1ccc(C=O)cc1)C(=O)OC (stereo not drawn) | > 200 | – | – |
| COC(=O)C(Cc1ccccc1)NC(=O)COc1ccc(C=O)cc1 (stereo not drawn) | 4.96 | – | – |
| COC(=O)CNC(=O)COc1ccc(C=O)cc1 | 98.9 | – | – |
